Test results from patent US9884843B2 (Peloton Therapeutics, Inc., priority 2013, dated 2018).
Read-outs that look alike come from different tables or passages of the source.

Key:
[1] = system: HIF-2α HIS TAG-PASB Domain; experiment: biochemical; type: binding
Source text: (§1) The term “scintillation proximity assay” (SPA) refers to a homogenous assay in which light is emitted when a radiolabeled ligand is brought into close proximity to a radiosensitive bead. The assay typically contains a target protein that contains a tag (e.g., His Tag, Glutathione S-transferase Tag). The tag on the protein is used to bind the target protein to the scintillation bead. Radiolabeled ligand (e.g., labeled with tritium) that binds to the protein is now in close proximity to the bead, and when the raidolabel (e.g., tritium) decays, the high energy particle hits the bead resulting in the emission of light that is detected by a detector, such as photomultiplier tube or CCD camera. When unlabeled ligands or compounds that bind to the protein are used in the assay, they displace the radiolabeled ligand, resulting in loss of signal.
(§2) The total assay volume was about 100 μL in the following configuration: 2-μL compound in DMSO, 88 μL buffer with protein and probe and 10 μL of SPA beads. […] To each compound, 88 μL of the buffer solution was then added. […] The percent inhibition was determined and IC50 values were calculated using the Dotmatics system based on the following equation: % inhibition=[(high control−sample)/(high control−low control)]×100.

786-O-Hif-Luc cells = experiment: Luciferase Assay (HIF responsive element reporter); type: cell-based; details: read-out: Mean Luciferease EC50
Description: A pool of infected cells were then selected against 2 μg/mL of puromycin (P8833, Sigma) for 10 days followed by limited dilution to select single clones.
Each concentration was tested in triplicate. After about 24 hours, luciferase activity was determined using ONE-Glo Luciferase Assay Reagent (E6110, Promega) following the manufacturer's recommended procedure. EC50 were calculated by using Dotmatics software.

[2] = biological target: HIF-2α HIS TAG-PASB Domain (Homo sapiens, UniProt Q99814); experiment: biochemical; type: binding
Source text: as §1, §2

[3] = 786-O-Hif-Luc cells, about 24 hours
[4] = displacement of Compound 120 probe, mean, read-out: Mean SPA IC50
[5] = 24 h, 786-O-Hif-Luc cells, about 24 hours

Chain of HIF-2α HIS TAG-PASB Domain (Homo sapiens, UniProt Q99814) (Q99814 whole entry, looked up, the tested form may be a part): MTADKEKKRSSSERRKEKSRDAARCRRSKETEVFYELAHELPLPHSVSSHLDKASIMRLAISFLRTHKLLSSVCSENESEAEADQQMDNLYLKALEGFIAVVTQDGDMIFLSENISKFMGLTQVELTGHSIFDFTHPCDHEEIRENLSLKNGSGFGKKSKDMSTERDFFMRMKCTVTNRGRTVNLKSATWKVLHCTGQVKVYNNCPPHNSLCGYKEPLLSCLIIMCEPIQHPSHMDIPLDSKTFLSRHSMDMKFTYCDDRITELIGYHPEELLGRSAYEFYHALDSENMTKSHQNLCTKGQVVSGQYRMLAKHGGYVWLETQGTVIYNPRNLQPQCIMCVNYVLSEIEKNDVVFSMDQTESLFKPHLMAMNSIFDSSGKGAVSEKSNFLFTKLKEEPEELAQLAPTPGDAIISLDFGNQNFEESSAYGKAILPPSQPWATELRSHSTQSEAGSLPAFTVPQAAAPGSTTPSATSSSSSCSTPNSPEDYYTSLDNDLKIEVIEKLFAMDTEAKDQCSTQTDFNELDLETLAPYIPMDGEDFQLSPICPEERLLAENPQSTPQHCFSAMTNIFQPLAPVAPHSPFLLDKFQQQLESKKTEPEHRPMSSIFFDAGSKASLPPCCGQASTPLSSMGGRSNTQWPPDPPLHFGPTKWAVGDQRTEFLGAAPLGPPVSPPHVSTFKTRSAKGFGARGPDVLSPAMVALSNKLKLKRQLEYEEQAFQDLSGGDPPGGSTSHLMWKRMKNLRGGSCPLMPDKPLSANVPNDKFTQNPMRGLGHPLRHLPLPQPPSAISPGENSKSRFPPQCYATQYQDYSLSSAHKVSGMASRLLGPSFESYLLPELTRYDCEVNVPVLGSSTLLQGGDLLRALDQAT

Row | SMILES | EC50 (786-O-Hif-Luc cells; [3]) | IC50 [1, 4] | IC50 [2, 4] | also measured
1 | O=S1(=O)C[C@@H](O)c2c1ccc(Oc1cc(F)cc(Cl)c1)c2Br [(3S)-4-bromo-5-(3-chloro-5-fluoro-phenoxy)-1,1-dioxo-2,3-dihydrobenzothiophen-3-ol] | – | – | – | IC50 ([1]; unnumbered compounds listed by structure and name, read-out: IC50 value in SPA): > 100000 nM
2 | N#Cc1c(Oc2cc(F)cc(Cl)c2)ccc2c1C(O)C(F)(F)S2(=O)=O (stereo not shown) [Compound 10, 5-(3-chloro-5-fluorophenoxy)-2,2-difluoro-3-hydroxy-2,3-dihydrobenzo[b]thiophene-4-carbonitrile 1,1-dioxide] | 4170 nM | 45 nM | – | –
3 | Cc1c(Oc2cc(F)cc(Cl)c2)ccc2c1C(O)C(F)(F)S2(=O)=O (stereo not shown) [Compound 13, 5-(3-Chloro-5-fluorophenoxy)-2,2-difluoro-3-hydroxy-4-methyl-2,3-dihydrobenzo[b]thiophene 1,1-dioxide] | – | 15 nM | – | EC50 (786-O-Hif-Luc cells; 24 h): 450 nM
4 | NC1c2c(ccc(Oc3cc(F)cc(F)c3)c2Br)S(=O)(=O)C1(F)F (stereo not shown) [Compound 30, 3-Amino-4-bromo-5-(3,5-difluorophenoxy)-2,2-difluoro-2,3-dihydrobenzo[b]thiophene 1,1-dioxide] | 1700 nM | – | < 5 nM | –
5 | O=S1(=O)c2ccc(Oc3cncc(Cl)c3)c(C(F)F)c2C(O)C1(F)F (stereo not shown) [Compound 35, 5-((5-Chloropyridin-3-yl)oxy)-4-(difluoromethyl)-2,2-difluoro-3-hydroxy-2,3-dihydrobenzo[b]thiophene 1,1-dioxide] | – | 230 nM | – | EC50 (786-O-Hif-Luc cells; 24 h): 150 nM
6 | O=S1(=O)c2ccc(Oc3cc(F)cc(Cl)c3)c(Br)c2[C@H](O)C1(F)F [Compound 59, (3S)-4-Bromo-5-(3-chloro-5-fluoro-phenoxy)-2,2-difluoro-1,1-dioxo-3H-benzothiophen-3-ol] | 170 nM | – | 60 nM | –
7 | N#Cc1c(Oc2cc(F)cc(F)c2)ccc2c1[C@@H](O)CS2(=O)=O [Compound 68, (R)-5-(3,5-difluorophenoxy)-3-hydroxy-2,3-dihydrobenzo[b]thiophene-4-carbonitrile 1,1-dioxide] | – | – | – | EC50 (786-O-Hif-Luc cells; [5]): 370 nM; IC50 [2]: 125 nM

The next lines start with results.

Row | EC50 (786-O-Hif-Luc cells; [3]) | IC50 [1, 4] | IC50 [2, 4] | SMILES | also measured
8 | – | 1880 nM | – | O=S1(=O)c2ccc(Oc3cc(F)cc(Cl)c3)cc2C(O)C1(F)F (stereo not shown) [Compound 16, 5-(3-Chloro-5-fluorophenoxy)-2,2-difluoro-3-hydroxy-2,3-dihydrobenzo[b]thiophene 1,1-dioxide] | –
9 | – | – | 4140 nM | N=S1(=O)c2ccc(Oc3cc(F)cc(F)c3)c(Br)c2C(O)C1(F)F (stereo not shown) [Compound 31, 4-Bromo-5-(3,5-difluorophenoxy)-2,2-difluoro-3-hydroxy-1-imino-2,3-dihydro-1H-1λ^4-benzo[b]thiophene 1-oxide] | EC50 (786-O-Hif-Luc cells; [5]): 540 nM
10 | 170 nM | 120 nM | – | N#Cc1cncc(Oc2ccc3c(c2C(F)F)C(O)C(F)(F)S3(=O)=O)c1 (stereo not shown) [Compound 37, 5-((4-(Difluoromethyl)-2,2-difluoro-3-hydroxy-1,1-dioxido-2,3-dihydrobenzo[b]thiophen-5-yl)oxy)nicotinonitrile] | –
11 | 2790 nM | 2420 nM | – | N#Cc1cc(F)cc(Oc2ccc3c(c2C(F)F)C(=O)C(F)(F)S3(=O)=O)c1 [Compound 39, 3-((4-(Difluoromethyl)-2,2-difluoro-1,1-dioxido-3-oxo-2,3-dihydrobenzo[b]thiophen-5-yl)oxy)-5-fluorobenzonitrile] | –
12 | – | 21900 nM | – | CC1(C)C(O)c2c(ccc(Oc3cc(F)cc(Cl)c3)c2Br)S1(=O)=O (stereo not shown) [Compound 60, 4-Bromo-5-(3-chloro-5-fluoro-phenoxy)-2,2-dimethyl-1,1-dioxo-3H-benzothiophen-3-ol] | –
13 | – | – | 750 nM | N#Cc1c(Oc2cccc(F)c2)ccc2c1[C@@H](O)CS2(=O)=O [Compound 76, (R)-5-(3-fluorophenoxy)-3-hydroxy-2,3-dihydrobenzo[b]thiophene-4-carbonitrile 1,1-dioxide] | EC50 (786-O-Hif-Luc cells; [5]): 490 nM
14 | – | – | 1230 nM | N#Cc1cc(F)cc(Oc2ccc3c(c2C#N)C(N)C(F)(F)S3(=O)=O)c1 (stereo not shown) [Compound 118, 3-Amino-5-(3-cyano-5-fluorophenoxy)-2,2-difluoro-2,3-dihydrobenzo[b]thiophene-4-carbonitrile 1,1-dioxide] | EC50 (786-O-Hif-Luc cells; [5]): 4600 nM
